Source: ChEMBL document CHEMBL1201862, “PubChem BioAssay data set” (2004)
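Assay format: 96-well plates, 48-hour exposure. GI50 = concentration required for 50% inhibition of growth.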 Active and inactive are the calls of the source. No stated cut-off is given here; in the data, active = GI50 up to about 1.1 µM and inactive = higher.

Legend:
Assay in all cases: growth of human tumour cells (NCI), 48 h
[1] = tested on: ACHN
[2] = tested on: LXFL 529
[3] = tested on: OVCAR-4
[4] = tested on: SK-OV-3
[5] = tested on: LOX IMVI
[6] = tested on: HOP-62
[7] = tested on: NCI-H226
[8] = tested on: SK-MEL-5
[9] = tested on: MDA-N
[10] = tested on: HCC 2998
[11] = tested on: UACC-62
[12] = tested on: Malme-3M
[13] = tested on: NCI-H23
[14] = tested on: SNB-75
[15] = tested on: U-251
[16] = tested on: SN12C
[17] = tested on: UO-31
[18] = tested on: 786-0
[19] = tested on: SF-295
[20] = tested on: CCRF-CEM

| Compound | GI50 [1] | GI50 [2] | GI50 [3] | GI50 [4] | GI50 [5] | GI50 [6] | GI50 [7] | GI50 [8] | GI50 [9] | GI50 [10] | GI50 [11] | GI50 [12] | GI50 [13] | GI50 [14] | GI50 [15] | GI50 [16] | GI50 [17] | GI50 [18] | GI50 [19] | GI50 [20] |
| --- | --- | --- | --- | --- | --- | --- | --- | --- | --- | --- | --- | --- | --- | --- | --- | --- | --- | --- | --- | --- |
| Cc1cccc(C)c1NC(=O)C(C#N)C1=C(Cl)C(=O)c2ccccc2C1=O (configuration not stated) | 15.2 µM (inactive) | 16.1 µM (inactive) | 16 µM (inactive) | 20.9 µM (inactive) | 9.33 µM (inactive) | 18 µM (inactive) | 12.1 µM (inactive) | 13 µM (inactive) | 14.4 µM (inactive) | 17.8 µM (inactive) | 16.1 µM (inactive) | 15.2 µM (inactive) | 18.7 µM (inactive) | 15.7 µM (inactive) | 18.1 µM (inactive) | 17.4 µM (inactive) | 13.6 µM (inactive) | 22 µM (inactive) | 16.3 µM (inactive) | 1.62 µM (inactive) |
| O=C1C(O)=C(CCCc2ccc(Oc3ccccc3)cc2)C(=O)c2ccccc21 | 5.93 µM (inactive) | 4.98 µM (inactive) | 19.4 µM (inactive) | 51.4 µM (inactive) | 3.57 µM (inactive) | 10.7 µM (inactive) | 10.8 µM (inactive) | 3.38 µM (inactive) | – | 25.7 µM (inactive) | 3.94 µM (inactive) | 12.9 µM (inactive) | 4.58 µM (inactive) | 24.4 µM (inactive) | 5.64 µM (inactive) | 10.9 µM (inactive) | 5.92 µM (inactive) | 5.64 µM (inactive) | 7.78 µM (inactive) | 18.1 µM (inactive) |
| COc1cc2cc3c4c(cc(OC)c(OC)c4c2cc1OC)CCN3C(=O)N(C)C | 75.5 µM (inactive) | 77.4 µM (inactive) | 89.5 µM (inactive) | > 100 µM (inactive) | > 100 µM (inactive) | 72.1 µM (inactive) | 56.2 µM (inactive) | > 100 µM (inactive) | – | > 100 µM (inactive) | > 100 µM (inactive) | 59.3 µM (inactive) | > 10 µM (inactive) | 19.5 µM (inactive) | > 100 µM (inactive) | > 100 µM (inactive) | > 100 µM (inactive) | 44.5 µM (inactive) | 37.8 µM (inactive) | 96.6 µM (inactive) |
| CCN(CC)CCNc1ccc2nc(C)n3c4ccc(OC)cc4c(=O)c1c23 | 0.367 µM (active) | 1.41 µM (inactive) | 1.41 µM (inactive) | 5.48 µM (inactive) | 1.15 µM (inactive) | 4.06 µM (inactive) | 0.316 µM (active) | 5.57 µM (inactive) | 1.41 µM (inactive) | 0.8 µM (active) | 4.9 µM (inactive) | 5.33 µM (inactive) | 2.06 µM (inactive) | 4.68 µM (inactive) | 4.39 µM (inactive) | 0.546 µM (active) | 3.08 µM (inactive) | 0.558 µM (active) | 0.641 µM (active) | 0.126 µM (active) |
| COc1cc(C2c3cc4c(cc3[C@@H](N(C)C)[C@H]3COC(=O)C23)OCO4)cc(OC)c1O (some centres not stated) | 41.5 µM (inactive) | 35.2 µM (inactive) | 42.9 µM (inactive) | 37 µM (inactive) | 33.3 µM (inactive) | 50.4 µM (inactive) | > 100 µM (inactive) | 23.7 µM (inactive) | – | 53.6 µM (inactive) | 33.7 µM (inactive) | 37.7 µM (inactive) | 37.7 µM (inactive) | 93.3 µM (inactive) | 34 µM (inactive) | 51.4 µM (inactive) | > 100 µM (inactive) | 33.2 µM (inactive) | > 10 µM (inactive) | 49.1 µM (inactive) |
